From article PMC8286831, “Identifying SARS-CoV-2 antiviral compounds by screening for small molecule inhibitors of nsp13 helicase” (Biochemical Journal, 2021)
Entries after “also recorded” stand apart in the source; their conditions may differ. Structures can show the parent of a compound that is named as a salt. Where two headings read alike, the source gives them in different places.

What was measured:
[1] = biological target: SARS-CoV-2 nsp13 helicase (Severe acute respiratory syndrome coronavirus 2, UniProt P0DTD1); experiment: biochemical; format: biochemical
[2] = biological target: T1, SARS-CoV-2 RdRp holoenzyme (Severe acute respiratory syndrome coronavirus 2, UniProt P0DTD1); experiment: FRET-based RdRp strand displacement assay; format: biochemical
T1 construct: (Sf nsp12-3F/7L8 preincubated with Sf 7H8 at a 1:3 ratio); 3F (3xFlag) (C); made in house; host or cells: 'Sf', read as Spodoptera frugiperda insect cells (my inference from the prefix); details are in Bertolin et al

[3] = RNA (RdRp substrate), 0.3 mM each NTP, 0.02% Tween-20 in RdRp assay buffer
[4] = read-out: IC50 + 0.02% Tween-20
[5] = RNA (nsp13 substrate), 0.3 mM ATP, 0.02% Tween-20 in RdRp assay buffer
[6] = IC50 0.02% Tween-20 + (presence)
[7] = IC50 0.02% Tween-20 − (absence)
[8] = RNA (nsp13 substrate), 0.3 mM ATP, 0.02% Tween-20 in RdRp assay buffer, read-out: IC50 nsp13
[9] = RNA (RdRp substrate), 0.3 mM each NTP, 0.02% Tween-20 in RdRp assay buffer, read-out: IC50 RdRp

**Q.** Which results are given for `NC(Cc1cc(O)c(O)cc1O)C(=O)O` (racemic) [6-Hydroxy-DL-DOPA]?
**A.** IC50 + 0.02% Tween-20 [1]: Quenching; IC50 No detergent [1]: Quenching

**Q.** `CN(C)CC[C@H](CSc1ccccc1)Nc1ccc(S(=O)(=O)NC(=O)c2ccc(N3CCC(C)(C)CC3)cc2)cc1[N+](=O)[O-]` [A-385358] was tested. Which “IC50 RdRp” value [2, 3] did it give?
**A.** did not inhibit RdRp; also recorded: No inhibition

**Q.** What about the “IC50 nsp13” value [1] of the same compound?
**A.** No inhibition

**Q.** What about the IC50 [1, 4] of the same compound?
**A.** > 250 µM

**Q.** And the IC50 ([1]; read-out: IC50 No detergent)?
**A.** 3.3 µM

**Q.** Which “IC50 RdRp” value [2, 3] does the source give for `CN(C)CC[C@H](CSc1ccccc1)Nc1ccc(S(=O)(=O)NC(=O)c2ccc(N3CCN(Cc4ccccc4-c4ccc(Cl)cc4)CC3)cc2)cc1[N+](=O)[O-]` [ABT-737] here?
**A.** No inhibition

**Q.** What about the IC50 ([1]; IC50 + 0.02% Tween-20) of the same compound?
**A.** > 250 µM

**Q.** And the IC50 ([1]; IC50 No detergent)?
**A.** 1.2 µM

**Q.** What about the “IC50 nsp13” value [1, 5] of the same compound?
**A.** No inhibition

**Q.** How did the “IC50 + 0.02% Tween-20” value [1] turn out when `CCN(CC)C(=O)c1ccc(C2=CC3(CCNCC3)Oc3cccc(O)c32)cc1` [ADL5859] was run?
**A.** No inhibition

**Q.** And the IC50 ([1]; IC50 No detergent)?
**A.** > 250 µM

**Q.** Which Km ([1]; 2 nM FH-nsp13, 200 nM DNA substrate, read-out: Km for ATP with the DNA substrate) does the source give for `Nc1ncnc2c1ncn2[C@@H]1O[C@H](COP(=O)(O)OP(=O)(O)OP(=O)(O)O)[C@@H](O)[C@H]1O` [ATP] here?
**A.** 110 µM

**Q.** What about the Km ([1]; 3 nM FH-nsp13, 200 nM RNA substrate, read-out: Km for ATP with the RNA substrate) of the same compound?
**A.** 130 µM

**Q.** Which IC50 [2] does the source give for `COc1ccc(-c2ccc3cc(C(=O)O)ccc3c2)cc1C12CC3CC(CC(C3)C1)C2` [Adapalene] here?
**A.** 20 µM

**Q.** And the IC50 [1, 6]?
**A.** 5.5 µM

**Q.** What about the IC50 [1, 7] of the same compound?
**A.** 1.3 µM

**Q.** What about the IC50 ([1]; IC50 + 0.02% Tween-20) of the same compound?
**A.** 9.9 µM

**Q.** What about the IC50 ([1]; IC50 No detergent) of the same compound?
**A.** 3.7 µM

**Q.** What about the IC50 ([1]; IC50 nsp13) of the same compound?
**A.** 11 µM

**Q.** Which results are given for `Cc1cc(O[C@@H](CCC(F)(F)F)c2ccc(C(=O)NCCC(=O)O)cc2)cc(C)c1-c1ccc(C(C)(C)C)cc1` [Adomeglivant]?
**A.** IC50 [2]: 39 µM; IC50 ([1]; IC50 + 0.02% Tween-20): 103 µM; IC50 ([1]; IC50 No detergent): 5.3 µM; IC50 [1, 8]: > 100 µM

**Q.** What does the source list for `CC(C)c1cc(C(C)C)c(CC(=O)NS(=O)(=O)Oc2c(C(C)C)cccc2C(C)C)c(C(C)C)c1` [Avasimibe]?
**A.** IC50 [2]: 18 µM; IC50 RdRp [2, 3]: also inhibited RdRp in a similar fashion; IC50 [1, 6]: 17 µM; IC50 [1, 7]: 1.3 µM; IC50 ([1]; IC50 + 0.02% Tween-20): 13 µM; IC50 ([1]; IC50 No detergent): 4 µM

**Q.** What does the source list for `O=C1/C(=C/c2ccc(O)c(Br)c2)CN(Cc2ccccc2)C/C1=C\c1ccc(O)c(Br)c1` [CARM1-IN-1]?
**A.** IC50 [2, 9]: > 100 µM; IC50 [1, 8]: > 100 µM; IC50 [1, 4]: 126 µM; IC50 ([1]; read-out: IC50 No detergent): 4.2 µM

**Q.** For `CO/N=C(\C(=O)N[C@@H]1C(=O)N2C(C(=O)O)=C(CSC(=O)c3ccco3)CS[C@H]12)c1csc(N)n1` [Ceftiofur HCl], which IC50 ([1]; IC50 + 0.02% Tween-20) is on record?
**A.** > 250 µM

**Q.** What about the IC50 ([1]; IC50 No detergent) of the same compound?
**A.** > 250 µM

**Q.** Which IC50 [2, 9] does the source give for `CC(C)(C[C@H]1CN(S(=O)(=O)c2cccc(C(F)(F)F)c2)c2cc(-c3cc(F)cc(OC(F)F)c3)ccc2O1)C(=O)O` [Cintirorgon] here?
**A.** 36 µM

**Q.** And the IC50 [1, 6]?
**A.** 41 µM

**Q.** What about the IC50 [1, 7] of the same compound?
**A.** 2.1 µM

**Q.** What about the IC50 ([1]; IC50 + 0.02% Tween-20) of the same compound?
**A.** 38 µM

**Q.** What about the IC50 ([1]; IC50 No detergent) of the same compound?
**A.** 2.3 µM

**Q.** What about the IC50 [1, 8] of the same compound?
**A.** 97 µM

**Q.** With `COc1cccc2c1C(=O)c1c(O)c3c(c(O)c1C2=O)C[C@@](O)(C(=O)CO)C[C@@H]3O[C@H]1C[C@H](N)[C@H](O)[C@H](C)O1` [Doxorubicin] as the compound, how does the “IC50 + 0.02% Tween-20” value [1] read?
**A.** Artifact

**Q.** And the “IC50 No detergent” value [1]?
**A.** Artifact

**Q.** What does the source list for `CC/C=C\C/C=C\C/C=C\C/C=C\C/C=C\CCCC(=O)O` [Eicosapentaenoic acid]?
**A.** IC50 [2, 9]: 29 µM; IC50 ([1]; IC50 + 0.02% Tween-20): 69 µM; IC50 ([1]; IC50 No detergent): 14 µM; IC50 [1, 8]: 81 µM

**Q.** Which “IC50 RdRp” value [2, 3] does the source give for `CCCCCCCC/C=C/CCCCCCCC(=O)O` [Elaidic acid] here?
**A.** No inhibition

**Q.** And the IC50 ([1]; IC50 + 0.02% Tween-20)?
**A.** > 250 µM

**Q.** And the IC50 ([1]; IC50 No detergent)?
**A.** 8.6 µM

**Q.** What about the “IC50 nsp13” value [1, 5] of the same compound?
**A.** No inhibition

**Q.** For `COc1cc2c(cc1Cc1cccc(Cl)c1F)c(=O)c(C(=O)O)cn2[C@H](CO)C(C)C` [Elvitegravir], which IC50 ([1]; IC50 + 0.02% Tween-20) is on record?
**A.** > 250 µM

**Q.** And the IC50 ([1]; IC50 No detergent)?
**A.** 22 µM

**Q.** What about the “nsp13 inhibition and detergent sensitivity” value ([1]; presence or absence of non-ionic detergent) of the same compound?
**A.** clear inhibition only in the absence of detergent

**Q.** For `COC(=O)[C@@H]1CC2=CC(=O)CC[C@]2(C)[C@@]23O[C@@H]2C[C@@]2(C)[C@@H](CC[C@@]24CCC(=O)O4)[C@H]13` [Eplerenone], which “IC50 + 0.02% Tween-20” value [1] is on record?
**A.** No inhibition

**Q.** And the IC50 ([1]; IC50 No detergent)?
**A.** > 250 µM

**Q.** Which “IC50 RdRp” value [2, 3] does the source give for `CC1=C(/C=C/C(C)=C/C=C/C(C)=C/C(=O)Nc2ccc(O)cc2)C(C)(C)CCC1` [Fenretinide] here?
**A.** No inhibition

**Q.** And the IC50 [1, 6]?
**A.** > 250 µM

**Q.** What about the IC50 [1, 7] of the same compound?
**A.** 7.3 µM

**Q.** What about the IC50 ([1]; IC50 + 0.02% Tween-20) of the same compound?
**A.** > 250 µM

**Q.** And the IC50 ([1]; IC50 No detergent)?
**A.** 9.1 µM

**Q.** And the “IC50 nsp13” value [1, 5]?
**A.** No inhibition

**Q.** Which results are given for `CC1(C)O[C@@H]2C[C@H]3[C@@H]4C[C@H](F)C5=CC(=O)C=C[C@]5(C)[C@@]4(F)[C@@H](O)C[C@]3(C)[C@]2(C(=O)CO)O1` [Fluocinolone Acetonide]?
**A.** IC50 + 0.02% Tween-20 [1]: No inhibition; IC50 ([1]; IC50 No detergent): > 250 µM
